Assay results as given in patent US20260034091A1, “Compositions and Methods for Treating Metabolic Disorders” (The Regents of the University of California, priority 2022, published 2026).

Test system: CDAHFD induced NAFLD progression in mice
Assay: Dose dependent effect of TOFA in CDAHFD-induced NAFLD progression in mice
Format: in vivo
Settings: 3 weeks
Procedure: Six-week-old C57BL/6 male mice were fed with a L-Amino Acid Diet With 60 kcal % Fat With 0.1% Methionine and No Added Choline (Research Diets A06071302i) for three weeks before introduction of either vehicle (control) or TOFA via oral gavage for an additional three weeks (FIG. 1a). Mice were gavaged orally twice daily with varying doses of TOFA (0, 25, 50, 125, or 250 mg/kg per day). Upon study termination at six weeks, serum and liver samples were collected. Serum liver damage biomarkers, alanine transaminase (ALT) and aspartate transaminase (AST), were measured by commercially available kits (abcam105134 and abcam 105135, respectively). Hepatic triglycerides were detected from liver samples from a commercially available kit (abcam65336). Liver samples were also scored for degree of hepatic steatosis based on their hematoxylin and eosin (H&E) staining.

[1] = TOFA 0, 25, 50, 125, or 250 mg/kg per day, oral gavage twice daily

CCCCCCCCCCCCCCOc1ccc(C(=O)O)o1 [TOFA, 5-(Tetradecyloxy)-2-furoic acid]
degree of hepatic steatosis (H&E score) [1]: decreased degree of hepatic steatosis correlating to an increased dosage of TOFA | liver triglyceride contents per gram of liver [1]: decreased in a dose dependent manner | serum ALT activity levels [1]: dose dependent decrease | serum AST activity levels [1]: dose dependent decrease | tolerability (TOFA up to 250 mg/kg per day, oral): well tolerated
